Measured values from PMC9804084, “Multiple drug transporters contribute to the brain transfer of levofloxacin” (CNS Neuroscience & Therapeutics, 2022).
Read-outs that look alike come from different tables or passages of the source.

Legend:
[1] = tested on: T1, Breast cancer resistance protein (BCRP); assay: In vivo microdialysis pharmacokinetics of LVFX with BCRP inhibitor Ko143; conditions: rat, intravenous, with Ko143 15 mg/kg i.p., 30 min before LVFX, Ko143 group, Ko143 15 mg/kg i.p. + LVFX 50 mg/kg, N=5
T1 construct: from tissue; host or cells: living rat (blood-brain barrier, choroid plexus)
Procedure: (§1) On the day of surgery, rats were anesthetized using inhaled isoflurane via a facemask. The rats were placed in a stereotaxic frame (Gene&I), and the body temperature was maintained with a homoeothermic blanket set at 37°C. A midline incision was made to expose the skull. According to the Paxinos and Watson atlas, two microdialysis intracerebral guide cannulae (Eicom Co.) were implanted into the hippocampus CA1 region (Hp‐CA1 coordinates: AP −4.16 mm; ML −2.2 mm; DV −2.9 mm) and lateral ventricle (LV coordinates: AP −1.4 mm; ML +2.2 mm; DV −3.4 mm). Fixed to the skull using a screw and dental cement. After 3 days of recovery, the rats were anesthetized with isoflurane again. An intravascular probe (TP‐100‐20; 20 mm, Eicom Co.) was implanted into the jugular vein toward the right atrium. After the blood microdialysis probe was positioned within the jugular vein, the pipeline was connected to perfuse with ACD solution (citric acid 3.5 mM; sodium citrate 7.5 mM; dextrose 13.6 mM) at a flow rate of […], and the Hamilton microinjection pump was used for continuous perfusion. After stopping isoflurane inhalation, the rats were allowed to wake up naturally on the homoeothermic blanket. The awake rats were placed in a device that allowed them to move freely. Animals were allowed to recover for an additional 24 h.
(§2) All microdialysate concentrations (C m) from the hippocampal ECF and lateral ventricle CSF were converted to the unbound drug concentration (C u) at the target site using the following formula: C u = C m/R dial.
(§3) A total of 32 rats were randomly divided into the following groups: • Control group, N = 12: vehicle solution + LVFX (50 mg/kg). • TAR group, N = 5: Tariquidar (8 mg/kg) + LVFX (50 mg/kg). • Ko143 group, N = 5: Ko143 (15 mg/kg) + LVFX (50 mg/kg). • MK571 group, N = 5: MK571 (20 mg/kg) + LVFX (50 mg/kg). • PRO group, N = 5: Probenecid (50 mg/kg) + LVFX (50 mg/kg).
(§4) Levofloxacin was freshly dissolved in isotonic saline and administered via tail vein injection. Thirty minutes before LVFX administration, the intervention drugs of each group were injected intraperitoneally. To reduce the possible effect of solvents on BBB or BCSFB permeability of LVFX, we prioritized water as the solvent. However, Tariquidar and Ko143 are insoluble in water, and a cosolvent must be used to prepare agents that animals can tolerate. According to the different physicochemical properties of these four inhibitors, the preparation of each transporter inhibitor solution in this experiment was as follows. • P‐glycoprotein (P‐gp) inhibitor Tariquidar[22]: Tariquidar was freshly dissolved in DMSO to 8 mg/ml and then diluted to 4 mg/ml with a solution containing 10% Tween‐80, 25% PEG300, and 65% sterile water. • Breast cancer resistance protein (BCRP) inhibitor Ko143[23]: Ko143 was freshly dissolved in DMSO to 15 mg/ml and then diluted to 7.5 mg/ml with a solution containing 10% Tween‐80, 25% PEG300, and 65% sterile water. • Multidrug resistance‐associated proteins (MRPs) inhibitor MK571[24]: MK571 sodium salt hydrate was dissolved in 1.25% (w/v) aq sodium hydrogen carbonate (NaHCO3) solution to obtain a concentration of 10 mg/ml. • Organic anion transporters (OATs) inhibitor probenecid[25]: Probenecid was dissolved in NaOH (pH = 9.0–9.2) alkalized physiological saline to obtain a concentration of 25 mg/ml.
(§5) The pipelines where the blood and brain probes were installed were perfused at the speed of 2 μl/min with ACD solution and ACSF, respectively. Two brain probes were inserted into guide cannulas of the target site and allowed to equilibrate for 1 h. Subsequently, the rats were treated according to their corresponding groups in the device where they could move freely. Microdialyses samples were collected every 15 min using a fraction collector (EFC‐96, Eicom Co.) for 3 h and stored at 4°C until analysis. Finally, rats were anesthetized and decapitated, and their brain was harvested.

[2] = biological target: T2, Breast cancer resistance protein (BCRP) (Rattus norvegicus, UniProt Q80W57); assay: as above; conditions: intravenous, with Ko143 15 mg/kg i.p., Ko143 group, Ko143 15 mg/kg i.p. + LVFX 50 mg/kg; for MRT / AUC(0-inf) / Cmax / half-life / AUC(0-t): mean ± SD; for MRT / Tmax / AUC(0-inf) / Cmax / half-life: N=5; for AUC(0-t): N=5, read-out: AUC0–180 (converted)
T2 construct: from tissue; host or cells: living rat (blood-brain barrier, choroid plexus)
T2 sequence (Q80W57 1-657): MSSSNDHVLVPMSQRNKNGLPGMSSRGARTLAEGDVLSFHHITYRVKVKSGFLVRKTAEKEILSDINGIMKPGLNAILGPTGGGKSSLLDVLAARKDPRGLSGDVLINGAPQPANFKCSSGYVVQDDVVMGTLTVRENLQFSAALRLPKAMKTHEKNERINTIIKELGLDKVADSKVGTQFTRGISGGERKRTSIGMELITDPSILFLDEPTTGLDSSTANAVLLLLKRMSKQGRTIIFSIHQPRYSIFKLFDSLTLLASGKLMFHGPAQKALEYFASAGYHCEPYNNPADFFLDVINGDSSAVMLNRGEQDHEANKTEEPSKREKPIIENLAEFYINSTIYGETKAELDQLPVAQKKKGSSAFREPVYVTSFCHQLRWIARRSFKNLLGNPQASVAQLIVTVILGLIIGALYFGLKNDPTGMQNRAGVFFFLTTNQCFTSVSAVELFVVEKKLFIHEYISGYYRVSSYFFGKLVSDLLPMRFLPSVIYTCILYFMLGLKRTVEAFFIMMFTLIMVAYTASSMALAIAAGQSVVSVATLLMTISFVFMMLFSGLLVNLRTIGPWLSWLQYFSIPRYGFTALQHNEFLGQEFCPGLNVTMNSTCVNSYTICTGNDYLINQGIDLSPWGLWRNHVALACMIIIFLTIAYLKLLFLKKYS
Procedure: as §1, §2, §3, §4, §5

[3] = CSF (lateral ventricle microdialysate, unbound), CSF
[4] = brain ECF (hippocampal microdialysate, unbound), 30 min before LVFX, brain ECF

C[C@H]1COc2c(N3CCN(C)CC3)c(F)cc3c(=O)c(C(=O)O)cn1c23 [LVFX, Levofloxacin] was tested, and the Kp ([1]; CSF / blood (unbound, microdialysate), AUCu,CSF/AUCu,blood, read-out: K p,uu,CSF) was 0.424 ± 0.035, the Kp ([1]; brain ECF / blood, AUCu,ECF/AUCu,blood, read-out: K p,uu,ECF) was 0.389 ± 0.024 and the MRT ([2]; CSF (lateral ventricle microdialysate, unbound), 30 min before LVFX, CSF) was 69.6 min. It also gave a Tmax [2, 3] of 15 min, an AUC(0-inf) [2, 3] of 4940 ng·h/mL and a Cmax [2, 3] of 4260 ± 320 ng/mL. For the same molecule, the half-life [2, 3] was 41.8 ± 6.9 min, the AUC(0-t) [2, 3] was 4650 ng·h/mL and the Tmax [2, 4] was 15 min. The AUC(0-inf) [2, 4] was 4650 ng·h/mL, the Cmax [2, 4] was 3710 ± 250 ng/mL and the MRT [2, 4] was 75.5 min. For the same molecule, the half-life [2, 4] was 44.4 ± 10.4 min, the AUC(0-t) [2, 4] was 4280 ng·h/mL and the Tmax ([2]; 30 min before LVFX, blood) was 15 min. It also gave an AUC(0-inf) ([2]; 30 min before LVFX, blood) of 11900 ng·h/mL, a Cmax ([2]; 30 min before LVFX, blood) of 11000 ± 770 ng/mL and an MRT ([2]; 30 min before LVFX, blood) of 67.7 min. For the same molecule, the half-life ([2]; 30 min before LVFX, blood) was 42.8 ± 7.7 min and the AUC(0-t) ([2]; 30 min before LVFX, blood) was 11100 ng·h/mL.
